Assay results: patent US20190000847A1, “THERAPEUTIC AGENT FOR A WOUND” (DAIICHI SANKYO COMPANY LIMITED, priority 2015, published 2019)
Read-outs that look alike come from different tables or passages of the source.

Legend:
[1] = system: db/db mice; conditions: male db/db mice, 8 mm full thickness skin wound
Protocol: A full thickness skin wound was prepared on the backs of 9-week-old male db/db mice. The back of each mouse was shaved with an electric shaver under isoflurane anesthesia, and a full thickness skin wound of 8 mm in diameter was created on the back with a disposable biopsy punch. Compound A was administered dropwise (0.04 mL per wound site) at a concentration of 0.5 mM to the wound site once a day over 4 days from the wound creation date and protected with a dressing (Tegaderm Transparent Dressing). The negative control used was a test substance solubilizing solvent (10% Lutrol F127, 2% propylene glycol, 20 mM Tris buffer (pH 8.5)). 1, 4, 7, 9, 11, 15, and 18 days after the wound creation date, the wound site was photographed with a digital camera, and the wound area was calculated using image analysis software. When the wound area of the wound creation date was defined as 100%, the area at each day of photographing was calculated in terms of the percentage (%) of the area of the wound creation date. The test was conducted with 8 animals per group.

[2] = system: SD rats; conditions: male SD rats
Protocol: Pressure ulcer was created by pressure load on the right third trochanters of 8-week-old male SD rats. The skin on the right third trochanter of each rat was shaved with an electric shaver. A pressure of 902.3 to 911.2 g/cm^2 was loaded on the right third trochanter for 24 hours under anesthesia with pentobarbital and allobarbital. 2 days after cancellation of the pressure load, necrotic tissues were surgically removed under isoflurane anesthesia. When the necrotic tissue removal date was defined as day 1, compound A was administered dropwise (0.02 to 0.06 mL per wound site) at a concentration of 0.5 mM to the wound site once a day and protected with gauze and a waterproof film. The negative control used was a test substance solubilizing solvent (10% Lutrol F127, 2% propylene glycol, 20 mM Tris buffer (pH 8.5)). The major axis and minor axis of the wound surface were measured every day with a vernier caliper, and the wound area (major axis×minor axis) was calculated. When the wound area of day 1 was defined as 100%, the calculated area at each day was calculated in terms of the percentage (%) of the area of the wound creation date. The test was conducted with 10 animals per group.

[3] = system: db/db mice; experiment: Test Example 2: wound healing experiment, full thickness skin wound; format: in vivo; conditions: male db/db mice; for area under the curve (AUC) of the percent wound area / number of days required for 50% reduction in the percent wound area / 75% healing rate (proportion of individuals that achieved 75% or more reduction in the percent wound area at day 14): full thickness skin wound; for area under the curve (AUC) of the percent wound area: 0.15 mM dropwise; for number of days required for 50% reduction in the percent wound area / 75% healing rate (proportion of individuals that achieved 75% or more reduction in the percent wound area at day 14): compound B 0.15 mM dropwise; for number of days required for 50% reduction in the percent wound area: bFGF sprayed five times (approx. 30 μg), negative control 11.0 days (FIG. 4B); for 75% healing rate (proportion of individuals that achieved 75% or more reduction in the percent wound area at day 14): bFGF spray, negative control 16.7% (FIG. 4C)
Protocol: A positive control bFGF (trafermin (genetic recombination) formulation, Fiblast(trademark) spray) approved as a therapeutic agent for pressure ulcer and skin ulcer was sprayed five times (approximately 30 μg was administered per 6 cm in diameter) to the wound site from approximately 5 cm apart according to the dose regimen. […] The test was conducted with 6 animals per group.

Compound	time-dependent change in the percent wound area ([1]; 0.5 mM dropwise 0.04 mL per wound site once a day over 4 days, days 1-18, vs negative control (FIG. 1))	area under the curve (AUC) of the percent wound area ([1]; 0.5 mM dropwise once a day over 4 days, vs negative control (FIG. 2))	time dependent change in the percent wound area ([2]; pressure ulcer on right third trochanter, 0.5 mM dropwise 0.02 to 0.06 mL per wound site once a day, vs negative control (FIG. 5))	number of days required for healing ([2]; pressure ulcer, 0.5 mM dropwise once a day, negative control 25.3 days (FIG. 6B)) [days]	area under the curve (AUC) of the percent wound area ([2]; pressure ulcer, 0.5 mM dropwise once a day, vs negative control (FIG. 6A))	time dependent change in the healing rate (complete healing rate) ([2]; pressure ulcer, 0.5 mM dropwise once a day, vs negative control (FIG. 6C))	time dependent change in the percent wound area ([3]; 8 mm full thickness skin wound, 0.15 mM dropwise 0.04 mL per wound site at days 1, 2, 4, 7, 10, 14, 17, 22, vs negative control (FIG. 3))	area under the curve (AUC) of the percent wound area ([3]; compared with negative control group (FIG. 4A))	area under the curve (AUC) of the percent wound area ([3]; compared with positive control bFGF administration group (FIG. 4A))	number of days required for 50% reduction in the percent wound area [3] [days]	75% healing rate (proportion of individuals that achieved 75% or more reduction in the percent wound area at day 14) [3] [%]
Cc1nc(CC2CCN(c3ccc(-c4ccc(CO)cc4)cc3)CC2)nc(C(=O)NCC(=O)O)c1O [Compound A]	reduced the percent wound area at each point of evaluation, as compared with the negative control	low value as compared with AUC of the negative control group	reduced the percent wound area at each point of evaluation, as compared with the negative control	21.5	low value as compared with AUC of the negative control group	significant elevation in the healing rate as compared with the negative control group					
Cc1nc(CC2CCN(c3ccc(-c4ccc(C[C@H](C)O)cc4)cc3)CC2)nc(C(=O)NCC(=O)O)c1O [Compound B, [({5-Hydroxy-2-[(1-{4′-[(2S)-2-hydroxypropyl]biphenyl-4-yl}piperidin-4-yl)methyl]-6-methylpyrimidin-4-yl}carbonyl)amino]acetic acid]							reduced the percent wound area at each point of evaluation, as compared with the negative control	low value as compared with AUC of the negative control group	low value as compared with the positive control bFGF administration group	9.2	83.3
bFGF: positive control bFGF (trafermin (genetic recombination) formulation, Fiblast spray) approved as a therapeutic agent for pressure ulcer and skin ulcer										10.2	50.0
